Columns and labels:
[1] = molecular target: Beta-1 adrenergic receptor (Homo sapiens) (UniProt P08588); assay: Adrenergic beta1 Eurofins Panlabs panel; settings: Compound concentration 10.0 uM
[2] = molecular target: 5-hydroxytryptamine receptor 4 (Cavia porcellus) (UniProt O70528); assay: Serotonin (5-Hydroxytryptamine) 5-HT4 Eurofins Panlabs panel; settings: Compound concentration 10.0 uM
[3] = molecular target: Motilin receptor (Homo sapiens) (UniProt O43193); assay: Motilin Eurofins Panlabs panel; settings: concentration not given here
Motilin receptor (Homo sapiens), sequence (O43193 whole entry): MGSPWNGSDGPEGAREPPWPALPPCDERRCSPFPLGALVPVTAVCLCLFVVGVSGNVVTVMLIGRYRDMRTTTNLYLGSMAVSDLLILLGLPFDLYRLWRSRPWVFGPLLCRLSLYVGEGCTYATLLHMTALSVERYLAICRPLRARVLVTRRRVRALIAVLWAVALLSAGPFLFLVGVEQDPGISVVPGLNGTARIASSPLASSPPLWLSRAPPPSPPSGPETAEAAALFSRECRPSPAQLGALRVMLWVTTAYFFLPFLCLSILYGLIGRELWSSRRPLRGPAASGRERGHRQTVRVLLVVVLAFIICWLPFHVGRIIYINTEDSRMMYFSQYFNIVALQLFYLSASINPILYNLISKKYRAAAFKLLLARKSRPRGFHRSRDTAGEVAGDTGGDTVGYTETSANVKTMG

[4] = molecular target: L-type calcium channel, dihydropyridine site (Rattus norvegicus, UniProt P22002+P27732+Q02485); assay: Calcium Channel L-Type, Dihydropyridine Eurofins Panlabs panel; type: protein assay; settings: compound concentration 10 uM
[5] = molecular target: T1, Bone morphogenetic protein receptor type-2 (Homo sapiens) (UniProt Q13873); assay: BMPR2 SGC Tm panel (DSF); settings: for ΔTm: Compound concentration 10.0 uM
T1 sequence (whole entry): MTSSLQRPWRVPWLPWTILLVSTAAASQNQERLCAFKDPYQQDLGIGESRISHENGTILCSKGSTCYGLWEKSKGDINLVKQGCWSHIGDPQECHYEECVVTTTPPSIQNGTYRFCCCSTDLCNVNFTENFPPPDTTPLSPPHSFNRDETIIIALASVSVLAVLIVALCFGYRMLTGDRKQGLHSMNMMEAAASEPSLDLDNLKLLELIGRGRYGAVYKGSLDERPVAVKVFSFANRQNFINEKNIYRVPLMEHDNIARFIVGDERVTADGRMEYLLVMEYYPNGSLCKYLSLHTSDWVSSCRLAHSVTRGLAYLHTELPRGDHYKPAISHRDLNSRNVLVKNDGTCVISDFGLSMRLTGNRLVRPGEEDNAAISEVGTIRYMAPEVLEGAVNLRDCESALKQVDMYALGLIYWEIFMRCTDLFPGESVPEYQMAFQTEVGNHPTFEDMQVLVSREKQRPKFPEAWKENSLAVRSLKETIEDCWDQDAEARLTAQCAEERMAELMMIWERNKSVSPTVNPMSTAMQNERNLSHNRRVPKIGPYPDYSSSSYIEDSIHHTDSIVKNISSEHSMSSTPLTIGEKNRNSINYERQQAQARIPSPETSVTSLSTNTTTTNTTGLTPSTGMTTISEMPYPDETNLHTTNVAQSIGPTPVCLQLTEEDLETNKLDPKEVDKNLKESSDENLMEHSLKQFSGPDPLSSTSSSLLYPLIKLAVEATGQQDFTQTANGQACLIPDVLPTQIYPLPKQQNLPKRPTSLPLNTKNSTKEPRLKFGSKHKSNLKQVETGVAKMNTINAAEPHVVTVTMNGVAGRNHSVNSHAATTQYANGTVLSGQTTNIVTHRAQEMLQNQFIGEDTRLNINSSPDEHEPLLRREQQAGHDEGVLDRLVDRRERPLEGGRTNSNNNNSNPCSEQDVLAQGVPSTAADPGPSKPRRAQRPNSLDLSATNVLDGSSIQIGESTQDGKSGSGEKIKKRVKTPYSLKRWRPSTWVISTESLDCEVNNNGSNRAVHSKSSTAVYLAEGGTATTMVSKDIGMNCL

[6] = molecular target: Vascular endothelial growth factor receptor 1 (Homo sapiens) (UniProt P17948); assay: FLT1 SGC Tm panel (DSF); settings: for ΔTm: Compound concentration 10.0 uM
Vascular endothelial growth factor receptor 1 (Homo sapiens), sequence (P17948 whole entry): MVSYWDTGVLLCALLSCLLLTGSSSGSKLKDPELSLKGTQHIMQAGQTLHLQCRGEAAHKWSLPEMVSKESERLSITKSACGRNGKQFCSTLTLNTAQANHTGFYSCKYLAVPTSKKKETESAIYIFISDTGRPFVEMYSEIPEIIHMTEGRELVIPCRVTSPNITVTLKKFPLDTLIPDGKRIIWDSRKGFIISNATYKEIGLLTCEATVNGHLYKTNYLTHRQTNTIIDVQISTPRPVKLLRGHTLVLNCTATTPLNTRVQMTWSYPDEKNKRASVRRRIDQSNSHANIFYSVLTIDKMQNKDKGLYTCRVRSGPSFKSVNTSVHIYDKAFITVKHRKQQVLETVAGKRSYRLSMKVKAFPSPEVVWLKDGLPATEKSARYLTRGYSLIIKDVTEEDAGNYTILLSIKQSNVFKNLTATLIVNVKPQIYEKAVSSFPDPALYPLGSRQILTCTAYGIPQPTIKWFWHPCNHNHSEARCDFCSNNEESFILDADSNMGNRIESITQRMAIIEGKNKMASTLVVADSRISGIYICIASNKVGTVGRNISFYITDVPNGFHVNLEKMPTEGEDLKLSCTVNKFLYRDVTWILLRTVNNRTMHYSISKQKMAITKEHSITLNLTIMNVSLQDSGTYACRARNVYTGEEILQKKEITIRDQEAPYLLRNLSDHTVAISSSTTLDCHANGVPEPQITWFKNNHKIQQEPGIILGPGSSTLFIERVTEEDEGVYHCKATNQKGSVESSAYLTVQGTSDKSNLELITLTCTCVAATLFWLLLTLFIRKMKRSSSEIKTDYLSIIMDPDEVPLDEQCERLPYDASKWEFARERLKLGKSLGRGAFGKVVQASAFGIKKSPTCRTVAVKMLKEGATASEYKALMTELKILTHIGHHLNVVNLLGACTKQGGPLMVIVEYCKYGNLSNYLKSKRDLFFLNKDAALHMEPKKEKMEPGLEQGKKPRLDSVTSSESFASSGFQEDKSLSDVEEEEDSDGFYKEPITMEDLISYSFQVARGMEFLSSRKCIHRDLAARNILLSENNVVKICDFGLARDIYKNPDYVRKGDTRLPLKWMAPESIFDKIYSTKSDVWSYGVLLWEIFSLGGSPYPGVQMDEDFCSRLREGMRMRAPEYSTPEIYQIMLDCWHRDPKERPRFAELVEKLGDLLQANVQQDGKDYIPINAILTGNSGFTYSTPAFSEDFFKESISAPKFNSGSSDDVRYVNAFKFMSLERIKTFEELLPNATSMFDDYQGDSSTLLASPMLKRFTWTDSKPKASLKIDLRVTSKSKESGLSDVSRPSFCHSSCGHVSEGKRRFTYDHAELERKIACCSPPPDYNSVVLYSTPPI

[7] = molecular target: T2, Muscarinic acetylcholine receptor M1 (Homo sapiens) (UniProt P11229); settings: Compound concentration 10.0 uM
T2 sequence (whole entry): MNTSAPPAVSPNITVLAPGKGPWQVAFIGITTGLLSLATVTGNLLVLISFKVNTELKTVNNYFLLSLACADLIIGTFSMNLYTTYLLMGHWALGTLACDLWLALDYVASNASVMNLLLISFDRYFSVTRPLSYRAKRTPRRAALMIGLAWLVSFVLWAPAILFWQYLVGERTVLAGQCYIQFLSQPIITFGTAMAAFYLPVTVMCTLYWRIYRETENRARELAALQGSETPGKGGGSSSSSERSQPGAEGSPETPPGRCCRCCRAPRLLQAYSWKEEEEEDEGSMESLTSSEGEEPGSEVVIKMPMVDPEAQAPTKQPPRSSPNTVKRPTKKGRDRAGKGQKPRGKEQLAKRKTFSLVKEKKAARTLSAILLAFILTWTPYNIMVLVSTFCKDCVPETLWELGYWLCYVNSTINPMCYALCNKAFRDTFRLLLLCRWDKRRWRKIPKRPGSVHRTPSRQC

[8] = molecular target: T3, Calcium/calmodulin-dependent protein kinase type IV (Homo sapiens) (UniProt Q16566); assay: CAMK4 SGC Tm panel (DSF); settings: for ΔTm: Compound concentration 10.0 uM
T3 sequence (whole entry): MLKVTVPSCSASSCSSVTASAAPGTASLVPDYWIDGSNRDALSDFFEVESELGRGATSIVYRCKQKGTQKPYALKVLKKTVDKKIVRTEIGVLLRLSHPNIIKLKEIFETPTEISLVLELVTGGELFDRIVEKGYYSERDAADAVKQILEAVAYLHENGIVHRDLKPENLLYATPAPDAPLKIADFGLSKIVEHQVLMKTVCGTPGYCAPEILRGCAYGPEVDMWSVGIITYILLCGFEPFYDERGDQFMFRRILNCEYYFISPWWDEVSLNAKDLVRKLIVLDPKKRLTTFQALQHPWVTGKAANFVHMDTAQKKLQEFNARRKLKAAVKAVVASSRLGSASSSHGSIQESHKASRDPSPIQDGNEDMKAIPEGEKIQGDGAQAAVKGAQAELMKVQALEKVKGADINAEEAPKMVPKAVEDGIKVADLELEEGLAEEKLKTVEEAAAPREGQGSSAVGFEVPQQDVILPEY

[9] = molecular target: Histamine H3 receptor (Homo sapiens) (UniProt Q9Y5N1); assay: Histamine H3 Eurofins Panlabs panel; settings: Compound concentration 10.0 uM
Histamine H3 receptor (Homo sapiens), sequence (Q9Y5N1 whole entry): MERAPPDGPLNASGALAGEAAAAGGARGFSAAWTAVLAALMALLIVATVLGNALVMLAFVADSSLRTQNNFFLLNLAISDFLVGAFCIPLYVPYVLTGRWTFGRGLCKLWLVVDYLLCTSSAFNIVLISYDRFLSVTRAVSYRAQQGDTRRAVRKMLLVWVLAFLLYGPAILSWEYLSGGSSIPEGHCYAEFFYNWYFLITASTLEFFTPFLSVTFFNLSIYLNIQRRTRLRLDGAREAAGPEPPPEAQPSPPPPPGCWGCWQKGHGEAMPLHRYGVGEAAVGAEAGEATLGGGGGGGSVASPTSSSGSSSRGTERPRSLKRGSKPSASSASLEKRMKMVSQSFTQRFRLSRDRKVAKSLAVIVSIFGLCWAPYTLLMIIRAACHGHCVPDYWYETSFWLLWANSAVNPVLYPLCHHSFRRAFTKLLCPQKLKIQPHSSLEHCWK

[10] = molecular target: Monoamine oxidase A (MAO-A) (Homo sapiens, UniProt P21397); assay: Monoamine Oxidase MAO-A Eurofins Panlabs panel; settings: compound concentration 10 uM
Monoamine oxidase A (MAO-A), sequence (P21397 whole entry): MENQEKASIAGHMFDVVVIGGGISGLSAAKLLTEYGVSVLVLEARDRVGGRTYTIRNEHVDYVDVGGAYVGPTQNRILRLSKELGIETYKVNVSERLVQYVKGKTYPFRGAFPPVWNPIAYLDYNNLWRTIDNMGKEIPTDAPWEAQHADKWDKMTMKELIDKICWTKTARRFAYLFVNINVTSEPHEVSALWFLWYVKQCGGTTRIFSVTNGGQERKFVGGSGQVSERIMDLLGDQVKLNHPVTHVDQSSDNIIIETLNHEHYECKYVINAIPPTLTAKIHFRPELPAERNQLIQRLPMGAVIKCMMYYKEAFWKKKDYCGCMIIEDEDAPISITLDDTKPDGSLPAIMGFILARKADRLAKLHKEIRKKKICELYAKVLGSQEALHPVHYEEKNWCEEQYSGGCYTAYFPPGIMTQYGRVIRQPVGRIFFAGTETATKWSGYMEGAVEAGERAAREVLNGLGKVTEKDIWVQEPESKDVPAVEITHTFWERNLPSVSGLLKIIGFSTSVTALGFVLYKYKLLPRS

[11] = molecular target: D(2) dopamine receptor (Homo sapiens) (UniProt P14416); assay: Dopamine D2S Eurofins Panlabs panel; settings: Compound concentration 10.0 uM
D(2) dopamine receptor (Homo sapiens), sequence (P14416 whole entry): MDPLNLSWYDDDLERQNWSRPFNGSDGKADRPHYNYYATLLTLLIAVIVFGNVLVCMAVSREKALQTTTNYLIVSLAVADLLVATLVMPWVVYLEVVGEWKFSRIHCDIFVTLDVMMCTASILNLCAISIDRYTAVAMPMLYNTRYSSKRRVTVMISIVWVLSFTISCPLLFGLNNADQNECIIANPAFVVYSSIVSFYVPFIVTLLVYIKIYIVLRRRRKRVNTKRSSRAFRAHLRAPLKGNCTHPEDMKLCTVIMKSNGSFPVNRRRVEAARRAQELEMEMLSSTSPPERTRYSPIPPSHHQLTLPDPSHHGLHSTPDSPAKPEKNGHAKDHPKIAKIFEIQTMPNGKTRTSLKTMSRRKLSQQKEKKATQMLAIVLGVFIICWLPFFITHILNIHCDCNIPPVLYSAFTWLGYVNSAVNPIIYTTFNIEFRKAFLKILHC

[12] = molecular target: 3',5'-cyclic-AMP phosphodiesterase 4C (Homo sapiens) (UniProt Q08493); assay: Panlabs assay PDE4C1; design: compound concentration 10 uM; settings: at 10 µM
3',5'-cyclic-AMP phosphodiesterase 4C (Homo sapiens), sequence (Q08493 whole entry): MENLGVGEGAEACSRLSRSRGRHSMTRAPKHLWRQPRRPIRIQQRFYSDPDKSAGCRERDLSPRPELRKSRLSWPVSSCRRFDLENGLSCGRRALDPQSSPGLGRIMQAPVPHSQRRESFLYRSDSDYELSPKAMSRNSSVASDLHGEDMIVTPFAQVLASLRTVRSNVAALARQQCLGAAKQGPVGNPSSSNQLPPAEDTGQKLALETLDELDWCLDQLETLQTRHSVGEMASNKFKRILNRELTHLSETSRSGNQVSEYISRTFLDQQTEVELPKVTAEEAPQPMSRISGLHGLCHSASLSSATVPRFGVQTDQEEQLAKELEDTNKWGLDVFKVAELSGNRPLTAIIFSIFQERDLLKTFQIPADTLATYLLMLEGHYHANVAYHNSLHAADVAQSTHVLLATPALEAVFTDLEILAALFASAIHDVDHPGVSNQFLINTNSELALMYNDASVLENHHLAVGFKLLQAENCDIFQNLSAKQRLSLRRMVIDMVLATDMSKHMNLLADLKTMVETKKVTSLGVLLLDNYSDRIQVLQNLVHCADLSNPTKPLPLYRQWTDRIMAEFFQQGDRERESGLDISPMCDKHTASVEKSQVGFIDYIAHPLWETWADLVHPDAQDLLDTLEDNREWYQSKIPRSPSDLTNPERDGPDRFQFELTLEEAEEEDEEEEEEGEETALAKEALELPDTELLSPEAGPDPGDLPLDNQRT

[13] = molecular target: 3',5'-cyclic-AMP phosphodiesterase 4A (Homo sapiens) (UniProt P27815); assay: Panlabs assay PDE4A1A; design: compound concentration 10 uM; settings: at 10 µM

Beta-1 adrenergic receptor (Homo sapiens), sequence (P08588 whole entry, looked up): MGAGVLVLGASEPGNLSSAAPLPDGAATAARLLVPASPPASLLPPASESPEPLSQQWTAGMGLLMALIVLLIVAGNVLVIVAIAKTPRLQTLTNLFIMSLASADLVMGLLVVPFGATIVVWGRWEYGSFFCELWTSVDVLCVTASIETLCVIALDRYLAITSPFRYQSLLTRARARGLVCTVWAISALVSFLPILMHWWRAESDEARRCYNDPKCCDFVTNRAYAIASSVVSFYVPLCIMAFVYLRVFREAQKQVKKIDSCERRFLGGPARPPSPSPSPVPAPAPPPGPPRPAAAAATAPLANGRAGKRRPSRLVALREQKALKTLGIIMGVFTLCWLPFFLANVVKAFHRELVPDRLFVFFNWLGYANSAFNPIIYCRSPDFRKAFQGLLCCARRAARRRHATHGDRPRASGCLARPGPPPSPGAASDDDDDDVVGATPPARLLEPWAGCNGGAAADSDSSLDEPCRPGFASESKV
5-hydroxytryptamine receptor 4 (Cavia porcellus), sequence (O70528 whole entry): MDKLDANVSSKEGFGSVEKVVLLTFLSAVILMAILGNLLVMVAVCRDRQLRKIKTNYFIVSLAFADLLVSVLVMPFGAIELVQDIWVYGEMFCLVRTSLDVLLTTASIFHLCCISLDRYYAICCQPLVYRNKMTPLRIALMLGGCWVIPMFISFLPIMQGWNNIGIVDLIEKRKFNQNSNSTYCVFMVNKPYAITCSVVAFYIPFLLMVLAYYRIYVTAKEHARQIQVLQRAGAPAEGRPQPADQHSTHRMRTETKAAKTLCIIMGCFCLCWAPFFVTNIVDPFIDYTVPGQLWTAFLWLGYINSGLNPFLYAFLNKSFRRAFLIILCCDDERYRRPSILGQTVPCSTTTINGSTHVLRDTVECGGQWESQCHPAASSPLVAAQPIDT

SMILES: CCC[C@H]1CNCc2c1[nH]c(=O)c(C#N)c2N1CCC2(CC1)CC2
- inhibition [1]: 5.2%
- inhibition [2]: 22%
- inhibition [3]: 0%
- inhibition at 10 µM [4]: 29%
- delta Tm Staurosporine positive control [5]: 3.02
- ΔTm [5]: 0.146
- delta Tm Staurosporine positive control [6]: 13.1
- ΔTm [6]: -0.145
- inhibition [7]: 0.28%
- delta Tm Staurosporine positive control [8]: 8.45
- ΔTm [8]: -0.566
- inhibition [9]: 5%
- inhibition at 10 µM [10]: 2%
- inhibition [11]: -2%

SMILES: CCC[C@@H]1CNCc2c1[nH]c(=O)c(C#N)c2N1CCC2(CC1)CC2
- inhibition [12]: 28.6%
- delta Tm Staurosporine positive control [5]: 3.02
- ΔTm [5]: 0.0735
- delta Tm Staurosporine positive control [6]: 13.1
- ΔTm [6]: -0.163
- inhibition [7]: -0.37%
- inhibition [13]: 6.8%
- delta Tm Staurosporine positive control [8]: 8.45
- ΔTm [8]: -1.12
